Read-outs that look alike come from different tables or passages of the source. Marks after values point to notes of the source that are not given here.
What was measured:
[1] = system: experimental periodontal disease (ligature model); details: for ALP (serum) / CRP (serum) / Ca (serum) / P (serum): rats
Protocol: (§1) All animals and surgical procedures were handled in accordance with guidelines of the Chancellor's Animal Research Committee of the Office for Protection of Research Subjects at the University of Inonu, Malatya, Turkey (2013/A-12). Fifty-two (2-month-old) female Sprague-Dawley rats weighing […] (Experimental Research Center of Inonu University) were kept in temperature-controlled cages (approximately 25° C.), exposed to a 24-hr light-dark cycle of equal time, and had free access to water and food ad libitum.
(§2) The fifty-two rats were randomly divided into four groups: the non-ligated treatment (Control) group (n=13), the ligature-only (L) group (n=13), the ligature plus ASI (“arginine-silicate-inositol;” Nutrition 21, NY, USA, see, e.g. U.S. Pat. Nos. 5,707,970 and 7,576,132) with dose of 1.81 mg/kg of diet group (designated “ASI I”), (n=13), the ligature plus ASI with dose of 3.62 mg/kg of diet group (designated “ASI II”) (n=13).
(§3) For all the studies described herein, the well-characterized ligature model of placing a sterile wire ligature around the crown of the right first maxillary molar was utilized. Rats were anesthetized with Rompun®, 10 mg/kg ve Xylazine®, 40 mg/kg ketamin, and a sterile 28-gauge wire ligature was placed around the cervical portion of the right first molar. Animals continued to receive basal diet or basal diet supplemented with 1.81 or 3.62 […] (Proctor et al., 2005) for 8 weeks before ligature placement.
(§4) Animals were monitored weekly to ensure presence of the ligature, and the ligature was adjusted if necessary. At the end of the experiment, animals were euthanized, blood was collected via cardiac puncture, and serum biomarkers including Ca, Mg, phosphorus, alkaline phosphatase, and CRP (C-reactive protein) were measured. Whole maxillas were removed, placed in 10% formalin for 48 hours, and stored in 70% ethanol.

[2] = system: IL-1β, MMP-8, RANK, RANKL, OPG, MPO expression levels from periodontal tissue; details: for IL-1β protein level / MMP-8 protein level / MPO protein level / OPG protein level / RANK protein level / RANKL protein level: control = 100
Source text: FIG. 1B depicts western blot strips Il-1B, MMP-8, RANK, RANK-L, OPG and MPO expression levels from periodontal tissue.
as §1, §2, §3, §4

[3] = system: experimental periodontal disease (ligature model); details: for ICI Dense, animals / ICI Little visible, animals / ICI Slightly visible, animals: n=13
Protocol: as §1, §2, §3
A histologic evaluation was performed by a single examiner (I.O.) who was masked to the identity of the samples. The specimens were fixed in a 10% neutral-buffered formalin solution and demineralized in an aqueous 10% formic acid solution. The specimens were then dehydrated, embedded in paraffin, and sectioned along the molars in a mesiodistal plane for hematoxylin and eosin staining, as described by Toker et al. Light microscopy (Nikon, Tokyo, Japan), and assessment was performed on the two sections with a thickness of about […], corresponding to the buccal and lingual areas between the first and second molars where ligatures had been placed.
The areas of alveolar bone and interdental septum were analyzed under light microscopy, considering parameters including inflammatory cell infiltration (“ICI”) of the periodontal tissues, existing resorption lacunae (osteoclast surfaces), osteoblastic activity (forming surfaces) and the number of osteoclasts. […] Osteoclasts were counted based on their morphology.

[4] = system: experimental periodontal disease (ligature model)
Protocol: as §1, §2, §3
Bones were imaged by micro-computed tomographic (μCT) scanning (SkyScan1172 Compact MKT (Kontich, Belgium)) at 16-μm resolution, and volumetric data were converted to DICOM format and imported in the Recon 1.6.9.4 SkyScan (Contich, Belgium) to generate 3D and multiplanar reconstructed images. An oral and maxillofacial radiologist (ST), blinded to the specific animal treatment, evaluated the μCT images of all animals to identify and score bony changes and performed all linear measurements using Recon software tools.
To quantify the amount of bone loss induced by experimental periodontal disease (PD), the imaged volume was oriented with the nasal cavity floor parallel to the horizontal plane and the midpalatal suture parallel to the midsagittal plane. Then the volume was angled such that the long axis of the distal root of the first molar (D1) and the mesial root of the second molar (M2) were vertical to the horizontal plane. Then the distance between the cementoenamel junction (CEJ) and the alveolar bone crest (ABC) was measured at the center of D1 and M2. To quantitatively assess changes in the width of the buccal alveolar outline on axial slices, the imaged volume was oriented such that the floor of the nasal cavity was parallel to the horizontal plane and the midpalatal suture was parallel to the midsagittal plane. Then the shortest distance from the buccal surface of the root to the buccal outline of the alveolar ridge was measured for the mesial and distal roots of the first and second molars at the level of the hard palate.

[5] = system: early to mild periodontitis
Source text: The study group comprises ten systemically healthy subjects with early to mild periodontitis. […] Prior to any treatment procedure, oral hygiene instructions (OHI) are given. Each quadrant of the subjects is randomly assigned to one of the following groups: (A) scaling and root planning combined with daily administration of arginine silicate post-treatment, (B) scaling and root planning alone, (C) daily administration of arginine silicate alone, and (D) OHI alone.
Subjects are re-examined at one week, four weeks, eight weeks, and 12 weeks.

gingivitis = assay: Study in patients with gingivitis (Example 4); assay type: in vivo, human
Protocol: 20 patients with gingivitis (having at least three of the following symptoms: swollen gums, bright red or purple gum tissue, gum tissue that is sensitive to touch, bleeding gums, bad breath) are studied. Five patients are administered once-daily arginine silicate (I); five patients are topically administered once-daily arginine silicate to the oral cavity (II); five patients are administered chlorhexidine mouthwash for twice-daily use (III); and five patients are administered standard over-the-counter mouthwash for twice daily use (IV).
Patients are evaluated at four weeks, eight weeks, and twelve weeks. […] The trial is ceased at twelve weeks to avoid side effects from the chlorhexidine treatment.

[6] = L + ASI I: ligature plus ASI, 1.81 mg/kg of diet
[7] = L + ASI II: ligature plus ASI, 3.62 mg/kg of diet

Substance: arginine silicate inositol [ASI]
- serum calcium levels ([1]; ASI II group (3.62 mg/kg of diet)): significantly reduced
- serum CRP levels in comparison to the induced periodontitis group ([1]; ASI treatment groups (both doses)): significantly lower
- ALP (serum) [1, 6]: 440.31 ± 69.93 U/L
- CRP (serum) [1, 6]: 0.16 ± 0.07^b mg/dl
- Ca (serum) [1, 6]: 10.37 ± 0.32 mg/dL
- P (serum) [1, 6]: 8.35 ± 1.82 mg/dL
- ALP (serum) [1, 7]: 380.54 ± 85.36 U/L
- CRP (serum) [1, 7]: 0.18 ± 0.06^b mg/dl
- Ca (serum) [1, 7]: 9.78 ± 0.66^c mg/dl
- P (serum) [1, 7]: 7.82 ± 1.61 mg/dL
- levels for IL-1β and MPO in the ASI II group in comparison to the ASI I group ([2]; 3.62 vs 1.81 mg/kg of diet): significantly lower
- levels for IL-1β, MMP-8, RANK, RANKL, OPG, MPO in comparison to the periodontitis group ([2]; ASI groups (both doses)): significantly lower
- IL-1β protein level ([2]; L + ASI I: 1.81 mg/kg of diet): 142.5 ± 2.53^a,b
- MMP-8 protein level ([2]; L + ASI I: 1.81 mg/kg of diet): 166.79 ± 7.86^a,b
- MPO protein level ([2]; L + ASI I: 1.81 mg/kg of diet): 180 ± 2.97^a,b
- OPG protein level ([2]; L + ASI I: 1.81 mg/kg of diet): 72.87 ± 4.67^a,b
- RANK protein level ([2]; L + ASI I: 1.81 mg/kg of diet): 189.27 ± 5.3^a,b
- RANKL protein level ([2]; L + ASI I: 1.81 mg/kg of diet): 150.11 ± 6.34^a,b
- IL-1β protein level ([2]; L + ASI II: 3.62 mg/kg of diet): 111.24 ± 2.35^a,b,c
- MMP-8 protein level ([2]; L + ASI II: 3.62 mg/kg of diet): 150.256 ± 11.6^a,b
- MPO protein level ([2]; L + ASI II: 3.62 mg/kg of diet): 159.59 ± 13.09^a,b,c
- OPG protein level ([2]; L + ASI II: 3.62 mg/kg of diet): 91.13 ± 3.04^a,b,c
- RANK protein level ([2]; L + ASI II: 3.62 mg/kg of diet): 174.31 ± 9.82^a,b
- RANKL protein level ([2]; L + ASI II: 3.62 mg/kg of diet): 138.35 ± 13.6^a,b
- ICI (inflammatory cell infiltration) ([3]; ASI treatment (both doses)): significantly reduced
- ICI Dense, animals ([3]; L + ASI I: 1.81 mg/kg of diet): 4 (%30.8) n (%)
- ICI Little visible, animals ([3]; L + ASI I: 1.81 mg/kg of diet): 0 (%0) n (%)
- ICI Slightly visible, animals ([3]; L + ASI I: 1.81 mg/kg of diet): 9 (%69.2) n (%)
- ICI Dense, animals ([3]; L + ASI II: 3.62 mg/kg of diet): 2 (%15.4) n (%)
- ICI Little visible, animals ([3]; L + ASI II: 3.62 mg/kg of diet): 0 (%0)^ n (%)
- ICI Slightly visible, animals ([3]; L + ASI II: 3.62 mg/kg of diet): 11 (%84.6) n (%)
- bone mineral density with respect to the controls and the ASI I group ([4]; ASI II (3.62 mg/kg of diet)): significantly increased
- BMD (bone mineral density) ([4]; L + ASI I: 1.81 mg/kg of diet): 0.78 ± 0.07 g/cm^2
- DCEJ-DCB/DCEJ-DRAP, rate of bone loss ([4]; L + ASI I: 1.81 mg/kg of diet): 0.41 ± 0.12 ^
- MCEJ-MCB/MCEJ-MRAP, rate of bone loss ([4]; L + ASI I: 1.81 mg/kg of diet): 0.49 ± 0.10 ^a,b
- RF-RFCB/RF-RFAP, rate of bone loss ([4]; L + ASI I: 1.81 mg/kg of diet): 0.21 ± 0.04 ^a,b
- BMD (bone mineral density) ([4]; L + ASI II: 3.62 mg/kg of diet): 0.85 ± 0.06 ^b g/cm^2
- DCEJ-DCB/DCEJ-DRAP, rate of bone loss ([4]; L + ASI II: 3.62 mg/kg of diet): 0.42 ± 0.08 ^
- MCEJ-MCB/MCEJ-MRAP, rate of bone loss ([4]; L + ASI II: 3.62 mg/kg of diet): 0.50 ± 0.10 ^a,b
- RF-RFCB/RF-RFAP, rate of bone loss ([4]; L + ASI II: 3.62 mg/kg of diet): 0.22 ± 0.05 ^a,b
- improvement in periodontal symptoms ([5]; group (A): scaling and root planning combined with daily arginine silicate, eight and twelve weeks): significant improvement
- improvement in periodontal symptoms ([5]; group (A): scaling and root planning combined with daily arginine silicate, four weeks): significant improvement
- improvement in periodontal symptoms ([5]; group (C): daily arginine silicate alone, eight and twelve weeks): significant improvement
- improvement in periodontal symptoms ([5]; group (C): daily arginine silicate alone, four weeks): minimal improvement
- reduction in symptoms of gingivitis (gingivitis; group (I): administered once-daily, eight and twelve weeks): most significant reduction
- reduction in symptoms of gingivitis (gingivitis; group (I): administered once-daily, four weeks): significant reduction
- reduction in symptoms of gingivitis (gingivitis; group (II): topically administered once-daily to the oral cavity, eight and twelve weeks): most significant reduction
- reduction in symptoms of gingivitis (gingivitis; group (II): topically administered once-daily to the oral cavity, four weeks): significant reduction

From patent US11191735B2, “Arginine silicate for periodontal disease” (NUTRITION 21, LLC, priority 2015, dated 2021)
